One compound from patent publication EP2711366A1, “Cationic triphenylamine derivatives activable by visible and Infra Red light for inducing and imaging apoptosis in cancer cells” (Institut Curie, priority 2012, dated 2014) can be followed below.

What all share (type): cell-based
One data set has as its system HeLa cells. The data set can be described thus: Cytophototoxicity by MTT assay under illumination. To be noted: irradiance 60mW/cm^2. For orientation: Tetrazolium dyes change colour on reduction, which living cells bring about.
Data set [1] is described as follows: Dark toxicity (MTT assay, without illumination). To be noted: human; MCF-7 cells, tested in dark; read-out: TC50 (toxicity concentration 50%), dark toxicity.
Description: (§1) Different experiments were conducted and described below: • MCF7 cells were treated with 2µM of TP2Py or TP3Bzim and exposed to illumination (Fig.9A); • HeLa cells were treated with 2µM of TP2Py or TP3Bzim and exposed to illumination (Fig.9B); • MCF7 cells were treated with TP2Py, 40 min illumination (black circles) or without illumination (white circles) (Fig.9C) • HeLa cells were treated with TP2Py [30 min illumination (black circles) or without illumination (white circles)] or TP3Bzim [15 min illumination (black triangles) or without illumination (white triangles)]
(§2) For each experiment, the source of excitation was a Mercury lamp (130W; 380-600nm) with an excitation filter centered at 452nm (± 45 nm), irradiance, 60mW/cm^2.
(§3) First, the experiment was calibrated by determining the time of illumination exposure which leads to the toxicity 50%, for a given concentration of TPA (2 µM) and for an irradiance of 60mW/cm^2. […] This characteristic time was then used for the plots shown in Fig. 9C and 9D which represent the cell viability as a function of TPA concentration (in HeLa and MCF-7 cells, respectively).
The subject of a further data set is living MCF-7 cells. The experiment in a line: One-photon confocal fluorescence microscopy, photo-induced nuclear translocation and membrane blebbing. The procedure:
One-photon epifluorescence and confocal images were obtained using a SP2 confocal microscope (Leica MicroSystem) equipped with an incubation chamber (37°C, CO2 5%). Excitation and emission filters for epifluorescence were 450-490 nm and 515-700 nm, respectively. A continuous laser line (458 nm) was used for excitation in the confocal mode.
The photo-induced nuclear translocation and membrane blebbing were next assessed using confocal fluorescence microscopy [λexc = 458 nm; emission slit settings: 560-720nm and 530-690nm for TP2Py and TP3Bzim, respectively] under experimental conditions similar to those described in experiment 1 for epifluorescence experiments. The corresponding transmission images illustrating the concomitant membrane blebbing are shown below the confocal fluorescence images. Living MCF7 cells were incubated with 2µM TP3Bzim or TP2Py for 2 hours before observation. As shown in Fig. 5A (TP2Py) and in Fig. 5B (TP3BZim), the results obtained with confocal imaging were similar to those obtained with epifluorescence imaging (experiment 1), with however, some discrepancies in the time courses of event appearance, most likely due to the power of the excitation source which is different between epifluorescence and confocal experiments (see below). […] Based on both criteria (re-localization of the fluorescence signal and the formation of blebs), the deduced fluences were 22 and 40 J/cm^2 for TP2Py and TP3Bzim, respectively. […]
The TP2Py compound at a concentration of 2 µM was first incubated with living MCF-7 cells for 2 hours and then observed with confocal microscope with varying illumination power of the laser source [λ=458 nm; emission slit setting: 560-720 nm]. […] For each condition, the fluorescence intensity in ROIs corresponding to the nucleus was plotted as a function of time (the initial time value, t = 0, represents the first observation) (FIG.7C). Using integration time based on tmax values, light dose values, determined from experiments performed at irradiance of 5.6 or 30 mW/cm^2, were consistent (27.6 and 27 J/cm^2 respectively). These values are in accordance with the above-mentioned value for TP2Py (fluence, 22 J/cm^2 in Fig. 5).
Living MCF-7 cells were treated with varying concentrations of TP2Py for two hours (2µM; 0.2µM and 0.02µM) and observed with a confocal microscope [λexc = 458nm; irradiance 30mW/cm^2, emission slit setting: 560-720nm.] (FIG 8A: 2µM; FIG 8B: 0.2µM; FIGBC: 0.02µM).

The next data set relates to MCF-7 cells. The experiment in a line: FITC-conjugated Annexin V staining, flow cytometric analysis (apoptosis). The conditions noted are these: for HMFI population: 30 min illumination; for HMFI population (Annexin V positive, TP2Py positive): 2µM, 2 hours. The procedure: MCF-7 cells were plated in 12-well plates (2.10^5 cells/well) and incubated with 2µM of TP2Py for 2h at 37°C. Under specific conditions (see Fig. 12), cells were further incubated with NAC (1mM) for 30 min, Bapta-AM (20µM) for 3h, or CsA (10µM) for 1h at 37°C. After a time illumination of either 30 or 60 min at […] (Mercury lamp (130W; 380-600nm) + excitation filter centered at 452nm (± 45nm)), cells were gently scraped and pooled with medium floating cells. Cells were individualized in PBS-EDTA (10mM) and stained as described by the manufacturer (Roche, Germany). Briefly, the cell pellet was re-suspended in 500µl Annexin V-HEPES solution (10 mM HEPES-NaOH, pH 7.4, 140mM NaCl, 5mM CaCl2) and incubated on ice for 30 min in the dark. Cells were then washed in ice-cold HEPES buffer before analysis. Fluorescence signals of fluorescently labelled (FITC) Annexin V and TP2Py were measured by a FACSCalibur flow cytometer (Becton-Dickinson, Sunnyvale, CA, USA) using FL1 and FL2 detectors, respectively.
Different experiments are summarized below: • MCF-7 cells treated with 2µM TP2Py for 2 hours and then stained with FITC-conjugated Annexin V immediately (Fig.12A) without light exposure; • MCF-7 cells treated with 2µM TP2Py for 2 hours and then stained with FITC-conjugated Annexin V after a time illumination (Exc, 452 nm) of 30 min (Fig.12B); • MCF-7 cells treated with 2µM TP2Py for 2 hours and then stained with FITC-conjugated Annexin V after a time illumination (Exc, 452 nm) of 60 min (Fig.12C); • control MCF-7 cells treated with DMSO (1%) only and illuminated for 30 min before Annexin V staining (Fig.12D); • control MCF-7 cells treated with 1µg/mL actinomycin D (ActD), no illumination before Annexin V staining (Fig.12E); • control MCF-7 cells treated with camptothecin (CPT, 10µM)) (Fig.12F) for 2.5 hours, no illumination before Annexin V staining; • MCF-7 cells treated during 2 hours with 2µM TP2Py and 10µM cyclosporine A (CsA) and illuminated for 30 min before Annexin V staining (Fig.12G); • MCF-7 cells treated during 2 hours with 2µM TP2Py and 1 mM N-Acetyl cysteine (NAC) and illuminated for 30 min before Annexin V staining (Fig.12H); and • MCF-7 cells treated during 2 hours with 2µM TP2Py and 20µM Bapta-am (Fig.12I) and illuminated for 30 min before Annexin V staining.
The horizontal (FL1-H) and vertical (FL2-H) axes correspond to the fluorescence signal of Annexin V and TP2Py, respectively. The percentage of population with a high mean fluorescence signal is indicated in the corresponding quadrant (top right or bottom right in the presence or absence of TP2Py, respectively).
(A flow cytometer gives signals particle by particle.)

The mark [2] stands for this setting: 2µM, 2 hours, λexc 458 nm, irradiance 30 mW/cm^2.

Description for HeLa cells: as §1, §2, §3

For the compound `C[n+]1ccc(/C=C/c2ccc(N(c3ccccc3)c3ccc(/C=C/c4cc[n+](C)cc4)cc3)cc2)cc1` [TP2Py], in the data set on HeLa cells (Mercury lamp, filter 452nm), the “illumination time required for the same TC50 under illumination” value was 30 min. The corresponding light dose in the data set with HeLa cells amounted to 108 J/cm^2. In addition, in data set [1], the CC50 was above 30 µM. In addition, in the data set on living MCF-7 cells (20nM, constant light excitation, transmission mode), the “time at which the first blebs appeared” value is reported as 75 min. This compound returned a light dose in the data set on living MCF-7 cells (0.2µM, irradiance 30 mW/cm^2) of 306 J/cm^2. The “tmax of nuclear re-localization” value with living MCF-7 cells (0.2µM, irradiance 30 mW/cm^2) was above 2 h; with living MCF-7 cells (2 µM, irradiance 30 mW/cm^2), 0.25 h. In addition, the “deduced fluence (re-localization of the fluorescence signal and formation of blebs)” value in the data set on living MCF-7 cells (2µM, 2 hours, confocal, λexc 458 nm (Fig. 5)) was found to be 22 J/cm^2. Further, in the data set with living MCF-7 cells (setting [2]), the “lag period before increase of fluorescence emission intensity in the nucleus” value lay within 2 to 4 min. In addition, the “time of maximum fluorescence emission intensity in the nucleus” value with living MCF-7 cells (setting [2]) lay in the range of 8 to 10 min. Besides, the “light dose (integration time based on tmax)” value with living MCF-7 cells (2 µM, irradiance 5.6 mW/cm^2) turned out to be 27.6 J/cm^2; in the data set on living MCF-7 cells (2 µM, irradiance 30 mW/cm^2), 27 J/cm^2. For the same compound, the “tstart of nuclear re-localization” value is recorded as 50 min with living MCF-7 cells (2 µM, irradiance 5.6 mW/cm^2) and 4 min in the data set on living MCF-7 cells (2 µM, irradiance 30 mW/cm^2). The HMFI population in the data set with MCF-7 cells (2µM TP2Py with 10µM cyclosporine A (CsA)) is 13%; in the data set on MCF-7 cells (2µM TP2Py with 20µM Bapta-am) it was 19%; with MCF-7 cells (2µM TP2Py with 1 mM N-Acetyl cysteine (NAC)), 25%. The “HMFI population (Annexin V positive, TP2Py positive)” value with MCF-7 cells (30 min illumination (452 nm, 40 MW.cm^-2)) worked out at 29%; with MCF-7 cells (60 min illumination) it was 38%; with MCF-7 cells (without light illumination), 4.3%.
